Data: patent EP0539588A1, “AMINE DERIVATIVE” (NIPPON SODA CO., LTD., priority 1990, dated 1992)
Read-outs that look alike come from different tables or passages of the source.

Assays:
[1] = system: Cotton aphids; assay: Efficacy against cotton aphids (spray on cucumber leaves); format: in vivo; conditions: for mortality at 125 ppm: 168 h, read-out: Control E fficacy (7 days later) 125ppm
Description: Test Example 1: Efficacy against cotton aphids
Cotton aphids were inoculated at the rate of 30-50 aphids per plot on 10 days old cucumber leaves grown in 10 cm pot by using small brush respectively. The aphids injured during inoculation were eliminated after one day, then the compound solution adjusted to 125 ppm concentration by dilution emulsifiable concentrate according to the recipe of the Example 6 with water was sprayed thereto. The aphids were allowed to stand in incubator maintained at 25 °C and 65% R.H., then counted the number of living aphids after 7 days whereby the control ratio was determined in comparison with the untreated plot.

[2] = system: resistant-strain of planthoppers for organophosphate and carbamate insecticides; assay: Efficacy against planthoppers (rice seedling dip); format: in vivo; conditions: Oryza sativa, 120 h, read-out: Mortality (5days later) 125 ppm
From the text: Test Example 2: Efficacy against planthoppers
Young seedlings of rice plant at the stage of 7 days after germination were dipped for 30 seconds in the compound solution of the emulsifiable concentrate according to the recipe of Example 6 adjusted to 125 ppm concentration by diluting with water. After seedlings were dried, they were put into the inside of test tubes and 10 third instar larva of resistant-strain of planthoppers for organophosphate and carbamate insecticides were respectively inoculated in each test tube. The test tubes were shielded with gauze and allowed to stand in the incubator maintained at 25°C and 65% R.H., then the percentage killed were counted after 5 days.

[3] = 125 ppm spray of emulsifiable concentrate (Example 6) on cucumber leaves, living aphids counted after 7 days, compared with the untreated plot, 25 °C, 65% R.H.
[4] = rice seedlings dipped 30 seconds in 125 ppm solution, 10 third instar larva per test tube, percentage killed after 5 days, 25°C, 65% R.H.

Cc1nc(N(C)C)nc(OC(=O)N(C)C)c1C [Comparative Compound A, Pyrimicarb, reference compound]
Control E fficacy (7 days later) 125ppm [1, 3]: 0%

CCOC(=O)CC(SP(=S)(OC)OC)C(=O)OCC (stereo not shown) [Comparative Compound B, Malathion, reference compound]
mortality at 125 ppm [2]: 0%

O=C1C=C(NCc2ccc(Cl)nc2)CCC1 [Compound No. 1, 1-(2-chloro-5-pyridylmethylamino)-1-cyclohexene-3-on]
mortality at 125 ppm [1]: 100%
mortality at 125 ppm [2]: 100%

Cn1c(NCc2ccc(Cl)nc2)cc(=O)n(C)c1=O [Compound No. 70, 4-(2-chloro-5-pyridylmethylamino)-1,3-dimethyluracil]
mortality at 125 ppm [2, 4]: 100%

Cn1c(NCc2ccc(Cl)nc2)c([N+](=O)[O-])c(=O)n(C)c1=O [Compound No. 71, 4-(2-chloro-5-pyridylmethylamino)-1,3-dimethyl-5-nitrouracil]
mortality at 125 ppm [2, 4]: 100%

Cc1cc(NCc2ccc(Cl)nc2)cc(=O)o1 [Compound No. 77, 4-(2-chloro-5-pyridylmethylamino)-6-methylpyran-2-on]
mortality at 125 ppm [2]: 100%

O=C1CCCC(NCc2ccc(Cl)nc2)=C1Cl [compound 23]
mortality at 125 ppm [2, 4]: 100%

CC1CCC(NCc2ccc(Cl)nc2)=CC1=O (stereo not shown) [compound 29]
mortality at 125 ppm [1, 3]: 100%
mortality at 125 ppm [2, 4]: 100%

CC1(C)CCC(NCc2ccc(Cl)nc2)=CC1=O [compound 30]
mortality at 125 ppm [2, 4]: 100%

CSC1CCC(NCc2ccc(Cl)nc2)=CC1=O (stereo not shown) [compound 31]
mortality at 125 ppm [1, 3]: 100%
mortality at 125 ppm [2, 4]: 100%

CC1CC(=O)C=C(NCc2ccc(Cl)nc2)C1 (stereo not shown) [compound 34]
mortality at 125 ppm [2, 4]: 100%

CSC1CCC(N(C)Cc2ccc(Cl)nc2)=CC1=O (stereo not shown) [compound 42]
mortality at 125 ppm [2, 4]: 100%

O=C1C=C(NCc2cnc(Cl)s2)CCC1 [compound 59]
mortality at 125 ppm [1, 3]: 100%
mortality at 125 ppm [2, 4]: 100%

CN(Cc1cnc(Cl)s1)C1=CC(=O)CCC1 [compound 60]
mortality at 125 ppm [1, 3]: 100%
mortality at 125 ppm [2, 4]: 100%

Cc1cc(NCc2ccc(Cl)nc2)c([N+](=O)[O-])c(=O)n1C [compound 69]
mortality at 125 ppm [2, 4]: 100%

CN1C(=O)C([N+](=O)[O-])=C(NCc2ccc(Cl)nc2)N(C)S1(=O)=O [compound 73]
mortality at 125 ppm [2, 4]: 100%

O=C1C=C(NCc2ccc(Cl)nc2)CCO1 [compound 74]
mortality at 125 ppm [1, 3]: 100%
mortality at 125 ppm [2, 4]: 100%

CC1CC(NCc2ccc(Cl)nc2)=CC(=O)O1 (stereo not shown) [compound 75]
mortality at 125 ppm [1, 3]: 100%
mortality at 125 ppm [2, 4]: 100%

O=C1C=C(NCc2ccc(Cl)nc2)CSC1 [compound 80]
mortality at 125 ppm [2, 4]: 100%

CN(Cc1ccc(Cl)nc1)C1=CC(=O)OCC1 [compound 82]
mortality at 125 ppm [1, 3]: 100%
mortality at 125 ppm [2, 4]: 100%

O=C1C=C(NCc2ccc(Cl)nc2)CO1 [compound 83]
mortality at 125 ppm [1, 3]: 100%
mortality at 125 ppm [2, 4]: 100%

CN(Cc1ccc(Cl)nc1)C1=CC(=O)OC1 [compound 84]
mortality at 125 ppm [1, 3]: 100%
mortality at 125 ppm [2, 4]: 100%

CCN(Cc1ccc(Cl)nc1)C1=CC(=O)OC1 [compound 85]
mortality at 125 ppm [1, 3]: 100%
mortality at 125 ppm [2, 4]: 100%

CCCN(Cc1ccc(Cl)nc1)C1=CC(=O)OC1 [compound 86]
mortality at 125 ppm [1, 3]: 100%
mortality at 125 ppm [2, 4]: 100%

O=C1C=C(N(Cc2ccc(Cl)nc2)C2CC2)CO1 [compound 88]
mortality at 125 ppm [1, 3]: 100%
mortality at 125 ppm [2, 4]: 100%

CC(C)CN(Cc1ccc(Cl)nc1)C1=CC(=O)OC1 [compound 89]
mortality at 125 ppm [1, 3]: 100%
mortality at 125 ppm [2, 4]: 100%

C=CCN(Cc1ccc(Cl)nc1)C1=CC(=O)OC1 [compound 91]
mortality at 125 ppm [1, 3]: 100%
mortality at 125 ppm [2, 4]: 100%

O=C1C=C(N(Cc2ccc(Cl)nc2)C(=O)C2CC2)CO1 [compound 96]
mortality at 125 ppm [2, 4]: 100%

CON(Cc1ccc(Cl)nc1)C1=CC(=O)OC1 [compound 98]
mortality at 125 ppm [1, 3]: 100%
mortality at 125 ppm [2, 4]: 100%

O=C1OCC(NCc2ccc(Cl)nc2)=C1Br [compound 103]
mortality at 125 ppm [1, 3]: 100%
mortality at 125 ppm [2, 4]: 100%

CN(Cc1ccc(Cl)nc1)C1=C(F)C(=O)OC1 [compound 104]
mortality at 125 ppm [1, 3]: 100%
mortality at 125 ppm [2, 4]: 100%

O=C1OCC(N(Cc2ccc(Cl)nc2)C2CC2)=C1F [compound 105]
mortality at 125 ppm [1, 3]: 100%
mortality at 125 ppm [2, 4]: 100%

O=C1C=C(NCc2ccc(Cl)nc2)CS1 [compound 111]
mortality at 125 ppm [1, 3]: 100%
mortality at 125 ppm [2, 4]: 100%

CN(Cc1ccc(Cl)nc1)C1=CC(=O)SC1 [compound 112]
mortality at 125 ppm [1, 3]: 100%
mortality at 125 ppm [2, 4]: 100%

CC1OC(=O)C=C1NCc1ccc(Cl)nc1 (stereo not shown) [compound 116]
mortality at 125 ppm [1, 3]: 100%
mortality at 125 ppm [2, 4]: 100%

CC1OC(=O)C=C1N(C)Cc1ccc(Cl)nc1 (stereo not shown) [compound 117]
mortality at 125 ppm [1, 3]: 100%
mortality at 125 ppm [2, 4]: 100%

O=C1C=C(NCc2cnc(Cl)s2)CO1 [compound 143]
mortality at 125 ppm [1, 3]: 100%
mortality at 125 ppm [2, 4]: 100%

CN(Cc1cnc(Cl)s1)C1=CC(=O)OC1 [compound 144]
mortality at 125 ppm [1, 3]: 100%
mortality at 125 ppm [2, 4]: 100%

CN1CC(NCc2ccc(Cl)nc2)=CC1=O [compound 161]
mortality at 125 ppm [2, 4]: 100%

CN(Cc1ccc(Cl)nc1)C1=CC(=O)CC1 [compound 175]
mortality at 125 ppm [1, 3]: 100%
mortality at 125 ppm [2, 4]: 100%

CC1=C(N(C)Cc2ccc(Cl)nc2)CCC1=O [compound 187]
mortality at 125 ppm [2, 4]: 100%
